Results from patent US5399588A, “Naphthalenylmethyl cycloalkenone acetic acids and analogs thereof useful as aldose reductase inhibitors” (American Home Products Corporation, priority 1993, dated 1995).

Assays:
[1] = molecular target: T1, bovine lens aldose reductase (Bos taurus, UniProt P16116); experiment: In vitro Inhibition of Aldose Reductase in the Bovine Lens; format: biochemical; conditions: DL-glyceraldehyde as substrate; for inhibition at 1 µM: 10^-6 M; for inhibition at 0.04 µM: 4 × 10^-8 M; for inhibition at 10 µM: 10^-5 M
T1 construct: in the preparation of the enzyme from bovine lens; from tissue; host or cells: bovine lens
Method: II. In vitro Inhibition of Aldose Reductase in the Bovine Lens
The aldose reductase inhibiting effects of the compounds of formula (I) were also tested by employing an in vitro testing procedure similar to that described by S. Hayman and J. H. Kinoshita, J. Biol. Chem., 240, 877 (1965) wherein the ability of the invention compounds to inhibit bovine lens aldose reductase with DL-glyceraldehyde as the substrate was determined. In the present case the procedure of Hayman and Kinoshita was modified in that the final chromatography step was omitted in the preparation of the enzyme from bovine lens.

[2] = tested on: aldose reductase; experiment: In vivo Inhibition of Aldose Reductase in Galactosemic Rats; set-up: species or system male rats, Sprague-Dawley strain; conditions: four days, polyol accumulation
Source text: I. In vivo Inhibition of Aldose Reductase in Galactosemic Rats
The aldose reductase inhibiting property of the compounds of this invention and the utilization of the compounds in preventing, diminishing and alleviating diabetic complications are demonstrable in experiments using galactosemic rats, see Dvornik et al., Science, 182, 1146 (1973).
(a) Four or more groups of six male rats, 50-70 g, Sprague-Dawley strain, were used. The first group, the control group, was fed a mixture of laboratory chow (rodent Laboratory Chow, Purina) and glucose at 20% (w/w %) concentration. An untreated galactosemic group was fed a similar diet in which galactose was substituted for glucose. The third group was fed a diet prepared by mixing a given amount of the test compound with the galactose containing diet. The concentration of galactose in the diet of the treated groups was the same as that for the untreated galactosemic group.
(b) After four days, the animals were killed by euthanization. Both the lens and sciatic nerve were removed, weighed and stored frozen for polyol determination.
(c) The polyol determination was performed by a modification of the procedure of M. Kraml and L. Cosyns, Clin. Biochem., 2, 373 (1969). Only two minor reagent changes were made: (a) the rinsing mixture was an aqueous 5% (w/v) trichloroacetic acid solution and (b) the stock solution was prepared by dissolving 25 mg of dulcitol in 100 mL of an aqueous trichloroacetic acid solution. [N.B.: For each experiment the average value found in the tissue from rats fed the glucose diet was subtracted from the individual values found in the corresponding tissue in galactose-fed rats to obtain the amount of polyol accumulated].

[3] = 100 mg/kg/day in galactose-containing diet

With `O=C(O)CC1=C(Cc2ccc3ccccc3c2)C(=O)CCC1` [Example 7, [2-(naphthalen-2-ylmethyl)-3-oxo-cyclohex-1-enyl]-acetic acid] the inhibition at 1 µM [1] was 41%.

With `O=C(O)COC1=C(Cc2ccc3c(Br)cccc3c2)C(=O)CCC1` [Example 10, [[2-(5-bromo-naphthalen-2-ylmethyl)-3-oxo-cyclohex-1-enyl]oxy]-acetic acid] the inhibition at 0.04 µM [1] was 86%.

For `COC(=O)NC(=O)CC1=C(Cc2ccc3c(Br)cccc3c2)C(=O)CCC1` [Example 5, [[2-(5-bromo-naphthalen-2-ylmethyl)-3-oxo-cyclohex-1-enyl]acetyl]carbamic acid methyl ester], the “% Inhibition of aldose reductase” value [2, 3] was 45% and the inhibition at 10 µM [1] was 27%.

With `COc1ccc2cc(CC3=C(CC(=O)O)CCCC3=O)ccc2c1Br` [Example 2, [2-(5-bromo-6-methoxy-naphthalen-2-ylmethyl)-3-oxocyclohex-1-enyl] acetic acid] the “% Inhibition of aldose reductase” value [2, 3] was 71% and the inhibition at 0.1 µM ([1]; 10^-7 M) was 50%.

In the case of `O=C(O)COC1=C(Cc2ccc3c(Cl)cccc3c2)C(=O)CCC1` [Example 8, [[2-(5-chloro-naphthalen-2-ylmethyl)-3-oxo-1-cyclohex-1-enyl]oxy]acetic acid], the inhibition at 0.04 µM [1] is reported as 81%.

With `O=C(O)CC1=C(Cc2ccc3c(Cl)cccc3c2)C(=O)CC1` [Example 4, [2-(5-chloro-naphthalen-2-ylmethyl)-3-oxo-cyclopen-1-enyl]-acetic acid] the “% Inhibition of aldose reductase” value [2, 3] was 37% and the inhibition at 0.04 µM [1] was 62%.

Molecule `O=C(O)COC1=C(Cc2ccc3ccccc3c2)C(=O)CC1` [Example 12, [[2-(2-Naphthalen-2-ylmethyl)-3-oxo-cyclopent-1-enyl]oxy]-acetic acid] has an inhibition at 1 µM [1] of 61%.

`O=C(O)CC1=C(Cc2ccc3c(Br)cccc3c2)C(=O)CCC1` [Example 1, [2-(5-Bromo-naphthalen-2-ylmethyl)-3-oxo-cyclohex-1-enyl]-acetic acid] was tested, and the “% Inhibition of aldose reductase” value [2, 3] was 68% and the inhibition at 0.04 µM [1] was 78%.

For `O=C(O)CC1=C(Cc2ccc3c(Cl)cccc3c2)C(=O)CCC1` [Example 3, [2-(5-chloro-naphthalen-2-ylmethyl)-3-oxo-cyclohex-1-enyl]-acetic acid], the “% Inhibition of aldose reductase” value ([2]; 105 mg/kg/day in galactose-containing diet) was 52%, the “% Inhibition of aldose reductase” value ([2]; 202 mg/kg/day in galactose-containing diet) was 73% and the inhibition at 0.04 µM [1] was 79%.

In the case of `O=C(O)COC1=C(Cc2ccc3ccccc3c2)C(=O)CCC1` [Example 9, [[2-(naphthalen-2-ylmethyl)-3-oxo-1-cyclohex-1-enyl]oxy]acetic acid], the inhibition at 1 µM [1] is reported as 87%.

Work on `COC(=O)NC(=O)CC1=C(Cc2ccc3c(Cl)cccc3c2)C(=O)CC1` [Example 6, [2-[2-(5-chloro-naphthalen-2-ylmethyl)-3-oxo-cyclopent-1-enyl]-acetyl]carbamic acid methyl ester] yielded an inhibition at 10 µM [1] of 19%.

`COc1ccc2c(CC3=C(CC(=O)O)CCC3=O)cccc2c1C(F)(F)F` [Example 14, [2-(6-Methoxy-5-trifluoromethyl-naphthalen-1-ylmethyl)-3-oxo-cyclopent-1-enyl]-acetic acid] gave an inhibition at 10 µM [1] of 84%.

Work on `O=C(O)COC1=C(Cc2ccc3c(Cl)cccc3c2)C(=O)CC1` [Example 11, [[2-(5-chloro-naphthalen-2-ylmethyl)-3-oxo-cyclopent-1-enyl]oxy]-acetic acid] yielded an inhibition at 0.04 µM [1] of 70%.

Work on `COc1ccc2c(CC3=C(CC(=O)O)CCCC3=O)cccc2c1C(F)(F)F` [Example 13, [2-(6-methoxy-5-trifluoromethyl-naphthalen-1-ylmethyl)-3-oxo-cyclohex-1-enyl]-acetic acid] yielded an inhibition at 10 µM [1] of 51%.
